Assay results: PubChem BioAssay AID248 (DTP/NCI, 2004)
Inconclusive results and toxic doses are left out. Cut-off read from the data, not from the text of the source: active = T/C of 150% or more; inactive = T/C below 125%.

System: L1210 leukemia ip in BDF1 mice, survival T/C
Experiment: NCI In Vivo Anticancer Drug Screen. Data for tumor model L1210 Leukemia (intraperitoneal) in B6D2F1 (BDF1) mice
Conditions: endpoint: mean survival time, higher = longer survival
How it was run: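 Value reflects the ratio of survival in compound-treated mice to survival in vehicle-treated controls, with both groups carrying the same transplanted tumor.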

[1] = dose: 100.0 mg/kg/injection, schedule: Q01DX009 (ip), vehicle: saline
[2] = dose: 100.0 mg/kg/injection, schedule: Q04DX003 (ip), vehicle: saline
[3] = dose: 200.0 mg/kg/injection, schedule: Q04DX003 (ip), vehicle: saline
[4] = dose: 400.0 mg/kg/injection, schedule: Q04DX003 (ip), vehicle: saline
[5] = dose: 100.0 mg/kg/injection, schedule: Q01DX009 (ip), vehicle: saline with Tween-80
[6] = dose: 100.0 mg/kg/injection, schedule: Q04DX003 (ip), vehicle: saline with Tween-80
[7] = dose: 200.0 mg/kg/injection, schedule: Q01DX009 (ip), vehicle: saline with Tween-80
[8] = dose: 200.0 mg/kg/injection, schedule: Q04DX003 (ip), vehicle: saline with Tween-80
[9] = dose: 400.0 mg/kg/injection, schedule: Q04DX003 (ip), vehicle: saline with Tween-80
[10] = dose: 100.0 mg/kg/injection, schedule: Q01DX001 (ip), vehicle: saline
[11] = dose: 200.0 mg/kg/injection, schedule: Q01DX001 (ip), vehicle: saline
[12] = dose: 400.0 mg/kg/injection, schedule: Q01DX001 (ip), vehicle: saline
[13] = dose: 50.0 mg/kg/injection, schedule: Q01DX001 (ip), vehicle: carboxymethylcellulose (CMC)
[14] = dose: 100.0 mg/kg/injection, schedule: Q01DX001 (ip), vehicle: carboxymethylcellulose (CMC)
[15] = dose: 200.0 mg/kg/injection, schedule: Q01DX001 (ip), vehicle: carboxymethylcellulose (CMC)
[16] = dose: 400.0 mg/kg/injection, schedule: Q01DX001 (ip), vehicle: carboxymethylcellulose (CMC)
[17] = dose: 50.0 mg/kg/injection, schedule: Q01DX009 (ip), vehicle: Klucel (hydroxypropylcellulose) (HPC)
[18] = dose: 100.0 mg/kg/injection, schedule: Q01DX009 (ip), vehicle: Klucel (hydroxypropylcellulose) (HPC)
[19] = dose: 200.0 mg/kg/injection, schedule: Q01DX009 (ip), vehicle: Klucel (hydroxypropylcellulose) (HPC)
[20] = dose: 400.0 mg/kg/injection, schedule: Q04DX002 (ip), vehicle: saline
[21] = dose: 100.0 mg/kg/injection, schedule: Q01DX001 (ip), vehicle: Klucel (hydroxypropylcellulose) (HPC)
[22] = dose: 200.0 mg/kg/injection, schedule: Q01DX001 (ip), vehicle: Klucel (hydroxypropylcellulose) (HPC)
[23] = dose: 25.0 mg/kg/injection, schedule: Q01DX009 (ip), vehicle: Klucel (hydroxypropylcellulose) (HPC)
[24] = dose: 50.0 mg/kg/injection, schedule: Q01DX009 (ip), vehicle: saline with Tween-80

Measured: T/C

C1CCC(=[N+]2CCCC2)CC1
inactive: [1] 93 % of control | [2] 106 % of control | dose: 200.0 mg/kg/injection, schedule: Q01DX009 (ip), vehicle: saline 101 % of control | [3] 104 % of control | dose: 400.0 mg/kg/injection, schedule: Q01DX009 (ip), vehicle: saline 88 % of control | [4] 102 % of control

CN(C)C(=O)C1CCC1
inactive: [5] 91 % of control | [6] 103 % of control | [7] 105 % of control | [8] 101 % of control | dose: 400.0 mg/kg/injection, schedule: Q01DX009 (ip), vehicle: saline with Tween-80 100 % of control | [9] 104 % of control

[Cl][Gd]([Cl])[Cl]
inactive: [2] 94 % of control | [3] 115 % of control | [4] 95 % of control

CCn1cc(C(=O)O)c(=O)c2ccc3ccccc3c21
inactive: dose: 100.0 mg/kg/injection, schedule: Q04DX002 (ip), vehicle: Klucel (hydroxypropylcellulose) (HPC) 100 % of control | dose: 200.0 mg/kg/injection, schedule: Q04DX002 (ip), vehicle: Klucel (hydroxypropylcellulose) (HPC) 103 % of control | dose: 400.0 mg/kg/injection, schedule: Q04DX002 (ip), vehicle: Klucel (hydroxypropylcellulose) (HPC) 100 % of control

CN(C)S(=O)(=O)c1ccc(NC(=O)OC2CCCCCC2)cc1
inactive: [10] 91 % of control | [11] 94 % of control | [12] 91 % of control

O=S(=O)(Sc1ccc(N(CCCl)CCCl)cc1)c1ccc(N(CCCl)CCCl)cc1
inactive: [13] 109 % of control | [14] 100 % of control | [15] 117 % of control | [16] 109 % of control

O=C(O)CC(Sc1ccccc1)c1ccccc1 (stereo unspecified)
inactive: [17] 98 % of control | [18] 101 % of control | dose: 177.0 mg/kg/injection, schedule: Q04DX002 (ip), vehicle: saline 94 % of control | [19] 96 % of control | dose: 266.0 mg/kg/injection, schedule: Q04DX002 (ip), vehicle: saline 94 % of control | [20] 105 % of control | dose: 600.0 mg/kg/injection, schedule: Q04DX002 (ip), vehicle: saline 103 % of control

NCC(O)c1cccc(O)c1 (stereo unspecified)
inactive: [13] 105 % of control | [14] 94 % of control | [15] 100 % of control | [16] 100 % of control

CC(NC(=O)C(CO)NC(=O)c1cnc2ccccc2n1)C(=O)OC(C)(C)C (stereo unspecified)
inactive: [10] 102 % of control | [11] 102 % of control | [12] 115 % of control

CC(=O)Nc1ccc(SC2(Sc3ccc(NC(C)=O)cc3)c3ccccc3-c3ccccc32)cc1
inactive: [10] 92 % of control | [11] 98 % of control | [12] 100 % of control

CC(CCl)OC(=O)CCO (stereo unspecified)
inactive: dose: 55.0 mg/kg/injection, schedule: Q01DX Z (ip), vehicle: methylcellulose (MC) 104 % of control | dose: 83.0 mg/kg/injection, schedule: Q01DX Z (ip), vehicle: methylcellulose (MC) 100 % of control | dose: 125.0 mg/kg/injection, schedule: Q01DX Z (ip), vehicle: methylcellulose (MC) 89 % of control

COC(=O)C(c1ccccc1)C1(O)CCN(Cc2ccccc2)CC1 (stereo unspecified)
inactive: dose: 75.0 mg/kg/injection, schedule: Q04DX003 (ip), vehicle: Klucel (hydroxypropylcellulose) (HPC) 98 % of control | dose: 150.0 mg/kg/injection, schedule: Q04DX003 (ip), vehicle: Klucel (hydroxypropylcellulose) (HPC) 101 % of control | dose: 300.0 mg/kg/injection, schedule: Q04DX003 (ip), vehicle: Klucel (hydroxypropylcellulose) (HPC) 90 % of control

O=C(COc1ccc(Cl)c(Cl)c1)NCc1cccc(NC(=O)c2cccc(S(=O)(=O)F)c2)c1
inactive: [21] 107 % of control | [22] 98 % of control | dose: 400.0 mg/kg/injection, schedule: Q01DX001 (ip), vehicle: Klucel (hydroxypropylcellulose) (HPC) 91 % of control

CC1(O)Cn2c(nc3nccnc32)S1 (stereo unspecified)
inactive: dose: 25.0 mg/kg/injection, schedule: Q01DX009 (ip), vehicle: saline 100 % of control | dose: 50.0 mg/kg/injection, schedule: Q01DX009 (ip), vehicle: saline 96 % of control | [1] 94 % of control | [2] 100 % of control | [3] 96 % of control

CN1C2CCC1CC(OC(=O)C(CO)c1ccccc1)C2 (stereo unspecified)
inactive: dose: 31.25 mg/kg/injection, schedule: Q01DX Z (ip), vehicle: saline 100 % of control | dose: 62.5 mg/kg/injection, schedule: Q01DX Z (ip), vehicle: saline 102 % of control | dose: 125.0 mg/kg/injection, schedule: Q01DX Z (ip), vehicle: saline 98 % of control

COc1nc(Cl)nc2c1c(C#N)cn2C1OC(CO)C(O)C1O (stereo unspecified)
inactive: dose: 100.0 mg/kg/injection, schedule: Q01DX005 (ip), vehicle: saline 113 % of control

C1=NCCc2cc3[nH]c4ccccc4c3cc21
inactive: [23] 100 % of control | [17] 100 % of control | dose: 50.0 mg/kg/injection, schedule: Q04DX003 (ip), vehicle: Klucel (hydroxypropylcellulose) (HPC) 98 % of control | [21] 95 % of control | [18] 102 % of control | dose: 100.0 mg/kg/injection, schedule: Q04DX003 (ip), vehicle: Klucel (hydroxypropylcellulose) (HPC) 97 % of control | [22] 91 % of control

S=C1SCN(C2CCCCCCCCCCC2)CN1C1CCCCCCCCCCC1
inactive: [6] 96 % of control | [8] 91 % of control | [9] 95 % of control

O=C(O)C[S+]1CCSCC1
inactive: dose: 100.0 mg/kg/injection, schedule: Q04DX002 (ip), vehicle: saline 105 % of control | dose: 200.0 mg/kg/injection, schedule: Q04DX002 (ip), vehicle: saline 105 % of control | [20] 105 % of control

NCC1OC(n2cnc3c(N)ncnc32)C(O)C1O (stereo unspecified)
inactive: [13] 98 % of control | [14] 102 % of control | [15] 107 % of control | [16] 109 % of control

O=c1[nH]c2ccccc2c2ccc(Br)cc12
inactive: [14] 104 % of control | [15] 97 % of control | [16] 90 % of control

CNS(=O)(=O)c1ccccc1C=C(c1ccccc1)c1ccccc1
inactive: dose: 100.0 mg/kg/injection, schedule: Q01DX001 (ip), vehicle: steriod suspending solution 92 % of control | dose: 200.0 mg/kg/injection, schedule: Q01DX001 (ip), vehicle: steriod suspending solution 114 % of control | dose: 400.0 mg/kg/injection, schedule: Q01DX001 (ip), vehicle: steriod suspending solution 102 % of control

CNC(Cc1ccccc1)c1ccccc1 (stereo unspecified)
inactive: dose: 25.0 mg/kg/injection, schedule: Q01DX009 (ip), vehicle: saline with Tween-80 94 % of control | [24] 101 % of control | [5] 99 % of control

CC1(C)CC(=O)C=C(OS(=O)(=O)C(F)(F)F)C1
inactive: dose: 12.5 mg/kg/injection, schedule: Q01DX009 (ip), vehicle: DMSO 110 % of control | dose: 25.0 mg/kg/injection, schedule: Q01DX009 (ip), vehicle: DMSO 101 % of control | dose: 50.0 mg/kg/injection, schedule: Q01DX009 (ip), vehicle: DMSO 103 % of control | dose: 100.0 mg/kg/injection, schedule: Q01DX009 (ip), vehicle: DMSO 94 % of control

CCOC(=O)CNC(=O)Oc1c(Cl)cccc1Cl
inactive: [23] 100 % of control | [17] 88 % of control | [18] 89 % of control

CC(C)(O)c1cccc(F)c1
inactive: [24] 90 % of control | [5] 93 % of control | [7] 121 % of control

Cc1cc2c(cc1C)C1(c3ccccc3)OC1(c1ccccc1)C2=O (stereo unspecified)
inactive: dose: 100.0 mg/kg/injection, schedule: Q01DX001 (ip), vehicle: saline with Tween-80 95 % of control | dose: 200.0 mg/kg/injection, schedule: Q01DX001 (ip), vehicle: saline with Tween-80 88 % of control | dose: 400.0 mg/kg/injection, schedule: Q01DX001 (ip), vehicle: saline with Tween-80 92 % of control

O=C1NN(c2ccccc2)CCO1
inactive: [18] 100 % of control | [19] 93 % of control
